13 compounds from PubChem BioAssay (NCI) can be followed below.

Test systems include MALME-3M melanoma; UACC-62 melanoma; 786-0 renal; RXF 393 renal; KM12 colon; SK-MEL-28 melanoma; SNB-75 CNS; HCC-2998 colon; A498 renal.
What all share (test): NCI anticancer screen, dose series, 48 h

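Grown in 96-well plates, cells were treated for 48 hours with each compound at five concentrations. Insufficient inhibition: endpoint recorded as highest concentration tested. GI50 = concentration required for 50% inhibition of growth. At the TGI there is no net growth.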 Where only a bound is given, the exact number is not on record here.

Consider `N#Cc1ccc(Sc2nc3ccccc3[nH]2)cc1`, for which the TGI in the assay on MALME-3M melanoma, with UACC-62 melanoma, in the assay with 786-0 renal, in the assay on RXF 393 renal, in the assay on KM12 colon and in the assay on SK-MEL-28 melanoma was above 100 µM throughout.

As to `O=C(c1ccccc1)[C@H]1Nc2ccc(Cl)cc2[C@H]2CCC[C@@H]12`, the TGI with MALME-3M melanoma is 51.3 µM; in the assay with UACC-62 melanoma it was above 100 µM; in the assay with 786-0 renal it was above 100 µM; with SNB-75 CNS it was above 100 µM; in the assay on HCC-2998 colon it was above 100 µM; in the assay with RXF 393 renal, 82.6 µM. Moreover, the figures for the TGI with KM12 colon and in the assay on SK-MEL-28 melanoma were above 100 µM and 92.6 µM, respectively.

Consider `COc1ccc2nc(NC(=O)C(=O)CC(=O)c3ccc([N+](=O)[O-])cc3)sc2c1`, for which the TGI in the assay on MALME-3M melanoma, with UACC-62 melanoma, in the assay with 786-0 renal, in the assay with SNB-75 CNS, in the assay on HCC-2998 colon and with KM12 colon was above 100 µM throughout. Also, the TGI with A498 renal and in the assay with SK-MEL-28 melanoma was above 100 µM in each case.

Turning to `CC(=O)[CH-]C(=O)c1ccccc1.[C-]#[O+].[C-]#[O+].[Ir]`, the GI50 in the assay with MALME-3M melanoma, in the assay on UACC-62 melanoma, in the assay with 786-0 renal, in the assay on SNB-75 CNS, with HCC-2998 colon and with RXF 393 renal was above 100 µM in each case. The GI50 was above 10 µM in the assay on KM12 colon and above 100 µM in the assay with SK-MEL-28 melanoma. For the same compound, the TGI with MALME-3M melanoma, with UACC-62 melanoma, in the assay with 786-0 renal, in the assay on SNB-75 CNS, in the assay with HCC-2998 colon and in the assay on RXF 393 renal was above 100 µM each time. Also, the TGI with KM12 colon was above 10 µM; with SK-MEL-28 melanoma it was above 100 µM.

In the case of `CCCC(=O)CC(C)C(=O)C(=O)NC12CC3CC(CC(C3)C1)C2` (configuration not stated), the TGI in the assay with MALME-3M melanoma, in the assay with 786-0 renal, in the assay with SNB-75 CNS, in the assay with HCC-2998 colon, with RXF 393 renal and in the assay on KM12 colon was above 100 µM each time. Besides, the TGI in the assay on SK-MEL-28 melanoma was above 100 µM.

Consider `COc1ccc2ccccc2c1C1=NC(C)(C)CO1`, for which the TGI in the assay with MALME-3M melanoma, in the assay on UACC-62 melanoma, in the assay on 786-0 renal, in the assay with SNB-75 CNS, in the assay with RXF 393 renal and with KM12 colon was above 100 µM in each case. The compound also came in with a TGI with SK-MEL-28 melanoma above 100 µM.

For `c1ccc(C(c2ccccc2)c2ccccn2)cc1`, the TGI in the assay on MALME-3M melanoma, with UACC-62 melanoma, with 786-0 renal, in the assay with SNB-75 CNS, in the assay with HCC-2998 colon and with KM12 colon was above 100 µM each time. For the same compound, the TGI in the assay with A498 renal and in the assay on SK-MEL-28 melanoma was above 100 µM in each case.

For `O=C(CCCC(=O)Nc1ccc(Cl)cc1Cl)CC(=O)c1ccc2ccccc2c1`, the TGI in the assay on MALME-3M melanoma, with UACC-62 melanoma, in the assay with 786-0 renal, with HCC-2998 colon, in the assay with RXF 393 renal and in the assay with KM12 colon was above 100 µM each time. The TGI with SK-MEL-28 melanoma was above 100 µM.

For `COc1cc(/C=C/c2csnn2)cc(OC)c1OC`, the TGI in the assay with MALME-3M melanoma, with UACC-62 melanoma, in the assay with 786-0 renal, in the assay on HCC-2998 colon, in the assay on RXF 393 renal and in the assay with KM12 colon was above 100 µM throughout. In the assay on SK-MEL-28 melanoma, this compound gave a TGI above 100 µM.

On to `CCCCCCCCOCC(COC(=O)CCCCCCC)OC(=O)CCCCCCC` (configuration not stated), for which the TGI with MALME-3M melanoma, in the assay with UACC-62 melanoma, in the assay with 786-0 renal, in the assay on HCC-2998 colon, in the assay with A498 renal and in the assay with SK-MEL-28 melanoma was above 100 µM each time.

In the case of `CC(=O)Nc1ccc(C2CC(c3ccc([N+](=O)[O-])cc3)=Nc3ccccc3S2=O)cc1` (configuration not stated), the TGI with UACC-62 melanoma is 27.8 µM; in the assay with 786-0 renal it was 22.6 µM; with SNB-75 CNS it was above 100 µM; in the assay with HCC-2998 colon, 30.5 µM; with RXF 393 renal, 32.3 µM; in the assay with KM12 colon, 35.1 µM. In the assay with SK-MEL-28 melanoma, the TGI was found to be 43.7 µM.

As to `CC12OC(=O)C(C#N)C1(C)C1C(=O)CCCC12` (configuration not stated), the TGI in the assay with MALME-3M melanoma, with UACC-62 melanoma, with 786-0 renal, in the assay on SNB-75 CNS, in the assay on RXF 393 renal and in the assay with KM12 colon was above 100 µM throughout. The same compound returned a TGI with SK-MEL-28 melanoma above 100 µM.

In the case of `C[C@H](C(=O)O)C(=O)NC(=O)N(Cc1ccccc1)N=O`, the TGI with MALME-3M melanoma, with UACC-62 melanoma, with 786-0 renal, in the assay with SNB-75 CNS, with HCC-2998 colon and with KM12 colon was above 100 µM throughout. The TGI in the assay with A498 renal and in the assay on SK-MEL-28 melanoma was above 100 µM throughout.
